# Earlier results in patent US7163956B2, “Substituted fullerene compositions and their use as antioxidants” (C Sixty Inc., priority 2003, dated 2007).
# Tested on: mice
# Details: oral administration, about 0.5 mg/kg/day
substance,measurement,setting,value
(C60(>C(COOH)2)3) [C3],increase in mean survival relative to controls,,~20%
same,mean survival,"controls 23.5+/−5.5 months, p=0.033",28.7+/−3.3 months
